Experimental data: patent publication US7893061B2, “Alkyne-substituted pyridone compounds and methods of use” (Amgen Inc., priority 2006, dated 2011)

What follows are compounds tested against T1, c-KIT kinase enzyme (Homo sapiens, UniProt P10721) (assay: cKIT Homogeneous Time Resolved Fluorescent (HTRF) kinase assay). Conditions: inhibition of the c-KIT kinase enzyme.
T1 construct: cKIT (6.25 μM) (catalytic domain, N-terminal GST tagged, unphosphorylated)
Type: biochemical
Procedure: cKIT-Homogeneous Time Resolved Fluorescent (HTRF) Kinase Assay:
The purpose of this assay is to measure the inhibition of cKIT enzyme activity (autophosphorylation and phosphorylation of substrate) by small molecule test compounds. The cKIT HTRF assay begins with cKIT-catalyzed phosphorylation of biotinylated peptide Her-2 (N-GGMEDIYFEFMGGKKK-C) (SEQ ID 001) in the presence of ATP. The cKIT enzyme reaction is comprised of 1 μL of compound in 100% DMSO, 15 μL of 2× substrate mix (50 μM ATP and 2 μM biotinylated Her-2) and 15 μL of 2× cKIT (6.25 μM) (catalytic domain, N-terminal GST tagged, unphosphorylated) in 4 mM DTT all diluted in enzyme buffer (25 mM HEPES pH 7.5, 12.5 mM NaCl, 50 mM MgCl, 0.05% BSA). The reaction incubates for 90 min at RT. 160 Microliters of detection mixture containing 0.47 μg/mL steptavidin allophycocyanin and 29.7 pM europylatedanti-phosphotyrosine Ab (PT66, Perkin Elmer) in HTRF buffer (100 mM Hepes pH 7.5, 100 mM NaCl, 0.1% BSA, 0.05% Tween 20) is then added to stop the reaction, by diluting out the enzyme as well as to enable quantitation of phosphorylated Her-2. After 3 h at RT, the detection reaction is read in a Packard Discovery™ (model BD1000) plate reader. The wells are excited with coherent […] light and the ratio of delayed ([…] post excitation) emissions at […] (native europium fluorescence) and 665 nm (europium fluorescence transferred to allophycocyanin—an index of substrate phosphorylation) is determined. The proportion of substrate phosphorylated in the kinase reaction in the presence of compound compared with that phosphorylated in the presence of DMSO vehicle alone (HI control) is calculated using the formula:
% control (POC)=(cpd−average LO)/(average HI−average LO)*100. Data (consisting of POC and inhibitor concentration in μM) is fitted to a 4-parameter equation (y=A+((B−A)/(1+((x/C)^D))), where A is the minimum y (POC) value, B is the maximum y (POC), C is the x (compound concentration) at the point of inflection and D is the slope factor) using a Levenburg-Marquardt non-linear regression algorithm.

T1 sequence (P10721 589-937 limits assumed): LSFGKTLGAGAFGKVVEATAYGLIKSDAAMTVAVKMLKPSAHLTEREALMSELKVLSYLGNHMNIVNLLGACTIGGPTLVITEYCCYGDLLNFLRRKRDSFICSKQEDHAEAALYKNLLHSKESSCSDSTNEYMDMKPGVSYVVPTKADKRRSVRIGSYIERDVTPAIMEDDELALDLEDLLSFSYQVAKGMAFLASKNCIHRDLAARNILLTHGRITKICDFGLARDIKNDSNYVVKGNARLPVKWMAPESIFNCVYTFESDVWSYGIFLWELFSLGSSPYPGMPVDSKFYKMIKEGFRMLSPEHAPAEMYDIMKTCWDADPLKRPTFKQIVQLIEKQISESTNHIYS

Row | SMILES | IC50 [µM]
1 | Cc1ccn(-c2ccc3c(c2)NCC3(C)C)c(=O)c1C#Cc1cnc(N)nc1 [Example 6, 3-((2-amino-5-pyrimidinyl)ethynyl)-1-(3,3-dimethyl-2,3-dihydro-1H-indol-6-yl)-4-methyl-2(1H)-pyridinone] | ≤ 0.01
2 | Cc1ccc(-n2ccc(C)c(C#Cc3cnc(N)nc3)c2=O)cc1C [Example 7, 3-((2-amino-5-pyrimidinyl)ethynyl)-1-(3,4-dimethylphenyl)-4-methyl-2(1H)-pyridinone] | ≤ 0.01
3 | CC(=O)N1CC(C)(C)c2ccc(-n3ccc(C)c(C#Cc4cnc(N)nc4)c3=O)cc21 [Example 8, 1-(1-acetyl-3,3-dimethyl-2,3-dihydro-1H-indol-6-yl)-3-((2-amino-5-pyrimidinyl)ethynyl)-4-methyl-2(1H)-pyridinone] | ≤ 0.02
4 | Cc1ccn(-c2ccc3c(c2)CCO3)c(=O)c1C#Cc1cnc(N)nc1 [Example 9, 3-((2-amino-5-pyrimidinyl)ethynyl)-1-(2,3-dihydro-1-benzofuran-5-yl)-4-methyl-2(1H)-pyridinone] | ≤ 0.1

The remaining lines, values ahead:

Row | IC50 [µM] | SMILES
5 | ≤ 0.1 | Cc1ccn(-c2cccc(C(F)(F)F)c2)c(=O)c1C#Cc1cnc(N)nc1 [Example 4, 3-((2-amino-5-pyrimidinyl)ethynyl)-4-methyl-1-(3-(trifluoromethyl)phenyl)-2(1H)-pyridinone]
6 | ≤ 0.1 | Cc1ccn(-c2cccc(OC(F)(F)F)c2)c(=O)c1C#Cc1cnc(N)nc1 [Example 10, 3-((2-amino-5-pyrimidinyl)ethynyl)-4-methyl-1-(3-((trifluoromethyl)oxy)phenyl)-2(1H)-pyridinone]
